Laboratory results as given in US6420563B1, “Small molecule modulators of G protein-coupled receptor six” (Arena Pharmaceuticals, Inc., priority 1998, dated 2002).

Experiments:
GPR6:Gsα-Fusion Protein = target: T1, GPR6:Gsα-Fusion Protein (Homo sapiens, UniProt P46095); assay: [35S]GTPγS membrane binding assay (Example 4A); assay type: biochemical; conditions: mean +/- standard deviation (number of assays in brackets); read-out: IC50 Values GTP Assay Example 4A
T1 construct: expressed in transfected cells
Description: The assay plates were then centrifuged at 400 rpm for 15 minutes at room temperature and then subsequently aspirated and counted in a scintillation counter.
Membranes expressing the GPCR6:Gsα-Fusion Protein (see Example 2) and for use in the direct identification of candidate compounds as inverse agonists, agonists or partial agonists were prepared as follows:
All materials were kept on ice throughout the procedure. Firstly, the media was aspirated from a confluent monolayer of cells, followed by rinse with 10 ml cold PBS, followed by aspiration. Thereafter, 5 ml of membrane Scrape Buffer was added to scrape cells; this was followed by transfer of cellular extract into 50 ml centrifuge tubes (centrifuged at 20,000 rpm for 17 minutes at 4° C.). Thereafter, the supernatant was aspirated and the pellet was resuspended in 30 ml Membrane Wash Buffer followed by centrifuge at 20,000 rpm for 17 minutes at 4° C. The supernatant was then aspirated and the pellet resuspended in Binding Buffer. This was then homogenized using a Brinkman polytron™ homogenizer (15-20 second bursts until the all material was in suspension). This is referred to herein as “Membrane Protein”.
Candidate compounds (Tripos, Inc., St. Louis, Mo.) were received in 96-well plates (these can be frozen at −80° C.). Membrane Protein (or membranes with expression vector excluding the GPR6:Gsα-Fusion Protein, as control), were homogenized briefly until in suspension. Protein concentration was then determined using the Bradford Protein Assay set forth above. […] Thereafter, 100 ul GDP Buffer was added to each well of a Wallac Scintistrip™ (Wallac). A 5 ul pin-tool was then used to transfer 5 ul of a candidate compound into such well (i.e., 5 ul in total assay volume of 200 ul is a 1:40 ratio such that the final screening concentration of the candidate compound is 10 uM). Again, to avoid contamination, after each transfer step the pin tool was rinsed in three reservoirs comprising water (1×), ethanol (1×) and water (2×)—excess liquid should be shaken from the tool after each rinse and dried with paper towels and kimwipes™. Thereafter, 50 ul of Membrane Protein was added to each well (a control well comprising membranes without the GPCR Fusion Protein is also utilized), and pre-incubated for 5-10 minutes at room temperature (the plates were covered with foil in that the candidate compounds obtained from Tripos are light sensitive). Thereafter, 50 ul of [^35S]GTPγS (0.6 nM) in Binding Buffer was added to each well, followed by incubation on a shaker for 60 minutes at room temperature (again, in this example, plates were covered with foil). The assay was then stopped by spinning of the plates at 4000 RPM for 15 minutes at 22° C. The plates were then aspirated with an 8 channel manifold and sealed with plastic plate covers. The plates were then read on a Wallac 1450 using setting “Prot. #37” (as per manufacturer instructions).
The initial or “primary” screen designed to directly identify, e.g., human GPR6 receptor inverse agonists, consisted of the membrane-based GTPγS binding assay of Example 4A utilizing membranes prepared from 293 stable cells. Candidate compounds directly identified as inhibiting receptor-mediated increases in GTPγS as set forth below were considered active “leads”.
It is preferred that following such direct identification, IC50 (inverse agonist) or EC50 (agonist) values be determined; those having ordinary skill in the art are credited with utilizing IC50 and EC50 assay protocols of choice. FIG. 4 provides a representative IC50 curve for compound ARE112 using the assay protocol of Example 4A.

GPR6 = target: T2, GPR6 (Homo sapiens, UniProt P46095); assay: membrane-based cyclic AMP confirmation assay (Example 4C); assay type: biochemical; conditions: mean +/- standard deviation (number of assays in brackets); read-out: IC50 Values Cyclic AMP Assay Example 4C
T2 construct: expressed in transfected cells; 293 cells are used elsewhere
Description: Using an independent assay approach to provide confirmation of a directly identified candidate compound as set forth above, it is preferred that a confirmation assay then be utilized. In this case, the preferred confirmation assay is membrane-based cyclic AMP (cAMP) assay.
A modified Flash Plate™ Adenylyl Cyclase kit (New England Nuclear; Cat. No. SMP004A) was utilized for confirmation of candidate compounds directly identified as inverse agonists and agonists to endogenous, constitutively activated orphan GPCRs in accordance with the following protocol.
Transfected stable cells were harvested approximately three days after transfection. Membranes were prepared by homogenization of suspended cells in buffer containing 20 mM HEPES, pH 7.4 and 10 mM MgCl2. Homogenization was performed on ice using a Brinkman Polytron™ for approximately 10 seconds. The resulting homogenate was centrifuged at 20,000 rpm for 20 minutes at 4° C. The resulting pellet was then resuspended in buffer containing 20 mM HEPES, pH 7.4 and 0.1 mM EDTA, homogenized for 10 seconds, followed by centrifugation at 20,000 rpm for 20 minutes at 4° C. The resulting pellet can be stored at −80° C. until utilized. On the day of direct identification screening, the membrane pellet is slowly thawed at room temperature, resuspended in buffer containing 20 mM HEPES, pH 7.4, 100 mM NaCl and 10 mM MgCL2, to yield a final protein concentration of 0.60 mg/ml (the resuspended membranes are placed on ice until use).
Candidate compounds identified as per above (if frozen, thawed at room temperature) were added to plate wells (3 μl/well; 12 μM final assay concentration), together with 50 μl Membrane Protein (30 μg/well) and 50 μl of Assay Buffer. This admixture was then incubated for 30 minutes at room temperature, with gentle shaking.
Following the incubation, 100 μl of Detection Buffer was added to each well, followed by incubation for 2-20 hours. Plates were subsequently aspirated and then counted in a Wallac MicroBeta™ plate reader using “Prot. #31” (as per manufacturer instructions).

[1] = Food/water intake and body weight in 24-hour food deprived rats, oral gavage (PO); assay type: in vivo, rat
Description: Based upon the in vivo data developed, oral bioavailability of compound ARE112 was determined. The compound was administered by oral gavage at doses ranging from 6.75 to 54 mg/kg. The data presented in FIGS. 9A and 9B support the conclusion that oral administration of ARE112 also decreases food intake in both food-deprived and non-food deprived rats. […] In FIG. 9A, rats were deprived 24 hours prior to oral administration of the compound. In this assay, the vehicle-treated rats at 2.5 hours consumed […] of food while injected rats; particularly rats administered with 27 and 54 mg/kg of ARE 112, ate about 6 and 4 grams, respectively. […] (See, FIG. 9A).
Several other GPR6 inverse agonists were also assessed under 24-hour food deprived conditions, with PO administration. The analogs listed below were tested at 200 μmol/kg, which is equivalent to 54 mg/kg. In addition, ARE114 was also assessed at […]. Data are summarized below in Table C:
In a second assay, tested under the same conditions, several other analogs were assessed at 100 μmol/kg.
In FIG. 10, rats were deprived 24 hours prior to oral administration of the compound. In this assay, analogs ARE130, ARE135, ARE136, and ARE140, were administered at a dose of 100 μmol/kg. Three analogs, particularly, ARE130, ARE136 and ARE140 evidenced a slow intake of food (e.g., about 1 to 1.5 grams every two hours) over an eight hour period post-administration; while the vehicle rat consumed about 2 to 2.5 grams food every two hours. Similar to the vehicle rat, analog ARE135, an opened ring structure, evidenced that over an eight hour period post-administration the rats increasingly consumed about 2.5 grams every two hours. (See, FIG. 10A). Furthermore, the body weight of the vehicle rat and administered rats with analog ARE135 gained about 19.5 grams. On the other hand, the closed ring structures evidenced a decrease in body weight gain as follows: ARE112-6 grams, ARE130-9 grams, ARE136-11 grams and ARE140-14 grams. See, FIG. 10C.

[2] = 100 μmol/kg PO, second assay, Table D, vehicle 19.25

T1 sequence (P46095 with tags, fused parts or gaps): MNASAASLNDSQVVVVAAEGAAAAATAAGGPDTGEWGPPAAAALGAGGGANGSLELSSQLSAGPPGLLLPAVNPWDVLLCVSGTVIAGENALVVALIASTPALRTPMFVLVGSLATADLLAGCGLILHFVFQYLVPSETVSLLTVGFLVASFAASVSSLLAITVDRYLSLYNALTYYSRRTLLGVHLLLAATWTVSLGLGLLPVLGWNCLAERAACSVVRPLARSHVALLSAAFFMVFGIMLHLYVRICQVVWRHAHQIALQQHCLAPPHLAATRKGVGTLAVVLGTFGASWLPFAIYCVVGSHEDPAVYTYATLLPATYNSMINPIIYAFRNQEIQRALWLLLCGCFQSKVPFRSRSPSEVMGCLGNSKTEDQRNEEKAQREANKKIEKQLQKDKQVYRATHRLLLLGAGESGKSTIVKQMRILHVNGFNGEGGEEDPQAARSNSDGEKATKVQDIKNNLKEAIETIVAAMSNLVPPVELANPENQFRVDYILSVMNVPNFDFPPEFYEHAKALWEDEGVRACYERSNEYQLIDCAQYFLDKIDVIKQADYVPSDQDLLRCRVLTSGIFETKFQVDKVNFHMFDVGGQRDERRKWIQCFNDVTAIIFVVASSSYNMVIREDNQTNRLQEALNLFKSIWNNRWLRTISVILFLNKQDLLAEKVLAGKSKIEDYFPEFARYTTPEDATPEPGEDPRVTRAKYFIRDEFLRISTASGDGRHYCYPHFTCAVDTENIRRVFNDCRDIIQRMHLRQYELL
T2 sequence (P46095 whole entry): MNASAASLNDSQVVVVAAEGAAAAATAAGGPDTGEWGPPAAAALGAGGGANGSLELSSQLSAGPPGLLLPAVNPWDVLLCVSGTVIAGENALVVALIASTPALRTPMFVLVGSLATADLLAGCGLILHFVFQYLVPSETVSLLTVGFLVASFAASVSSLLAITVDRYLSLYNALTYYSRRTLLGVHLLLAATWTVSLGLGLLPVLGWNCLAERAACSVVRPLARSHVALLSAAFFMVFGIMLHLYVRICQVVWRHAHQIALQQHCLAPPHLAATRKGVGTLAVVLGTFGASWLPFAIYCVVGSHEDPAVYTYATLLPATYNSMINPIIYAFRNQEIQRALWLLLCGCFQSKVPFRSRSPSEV

Row | IC50 (GPR6:Gsα-Fusion Protein) | IC50 (GPR6) | Compound | also measured
1 | 2790 nM | 1960 nM | O=C(NC(=S)N1CCNC1=S)c1cccs1 [ARE111, N-(2-thioxo-imidazolidine-1-carbothioyl)-thiophene-2-carboxamide] | –
2 | 100000 nM | – | O=C(NC(=S)N1CCNC1=S)c1ccccc1 [ARE113, N-(2-thioxo-imidazolidine-1-carbothioyl)-benzamide] | –
3 | 1570 nM | 3650 nM | O=C(NC(=S)N1CCNC1=S)c1ccc(C(F)(F)F)cc1 [ARE115, N-(2-thioxo-imidazolidine-1-carbothioyl)-4-trifluoromethylbenzamide] | –
4 | 570 nM | 170 nM | O=C(N=C1SSC2=NCCN21)c1ccc(C(F)(F)F)cc1 [ARE116, N-(5,6-dihydro-3H-imidazo[2,1-c]-1,2,4-dithiazol-3-ylidene)-4-trifluoromethylbenzamide] | –
5 | 650 nM | 370 nM | CC(C)(C)c1ccc(C(=O)N=C2SSC3=NCCN32)cc1 [ARE118, N-(5,6-dihydro-3H-imidazo[2,1-c]-1,2,4-dithiazol-3-ylidene)-4-tert-butylbenzamide] | –
6 | 450 nM | 1970 nM | O=C(NC(=S)N1CCNC1=S)c1ccc(Cl)cc1 [ARE119, N-(2-thioxo-imidazolidine-1-carbothioyl)-4-chlorobenzamide] | –
7 | 122000 nM | 55000 nM | COc1ccc(C(=O)NC(=S)N2CCNC2=S)cc1 [ARE121, N-(2-thioxo-imidazolidine-1-carbothioyl)-4-methoxybenzamide] | –
8 | 830 nM | 210 nM | COc1ccc(C(=O)N=C2SSC3=NCCN32)cc1 [ARE122, N-(5,6-dihydro-3H-imidazo[2,1-c]-1,2,4-dithiazol-3-ylidene)-4-methoxybenzamide] | –
9 | 56000 nM | 51000 nM | COc1cccc(C(=O)NC(=S)N2CCNC2=S)c1 [ARE123, N-(2-thioxo-imidazolidine-1-carbothioyl)-3-methoxybenzamide] | –
10 | 310 nM | 400 nM | COc1cccc(C(=O)N=C2SSC3=NCCN32)c1 [ARE124, N-(5,6-dihydro-3H-imidazo[2,1-c]-1,2,4-dithiazol-3-ylidene)-3-methoxybenzamide] | –
11 | 3800 nM | 120000 nM | Cc1cccc(C(=O)NC(=S)N2CCNC2=S)c1 [ARE125, N-(2-thioxo-imidazolidine-1-carbothioyl)-3-methylbenzamide] | –
12 | 790 nM | 140 nM | Cc1cccc(C(=O)N=C2SSC3=NCCN32)c1 [ARE126, N-(5,6-dihydro-3H-imidazo[2,1-c]-1,2,4-dithiazol-3-ylidene)-3-methylbenzamide] | –
13 | 1250 nM | 480 nM | O=C(NC(=S)N1CCNC1=S)c1ccc(F)cc1 [ARE127, N-(2-thioxo-imidazolidine-1-carbothioyl)-4-fluorobenzamide] | –
14 | 3190 nM | 2620 nM | O=C(NC(=S)N1CCNC1=S)c1cccc(F)c1 [ARE129, N-(2-thioxo-imidazolidine-1-carbothioyl)-3-fluorobenzamide] | –
15 | 43000 nM | – | O=C(NC(=S)N1CCNC1=S)c1ccccc1F [ARE131, N-(2-thioxo-imidazolidine-1-carbothioyl)-2-fluorobenzamide] | –
16 | 350 nM | 100 nM | O=C(N=C1SSC2=NCCN21)c1ccccc1F [ARE132, N-(5,6-dihydro-3H-imidazo[2,1-c]-1,2,4-dithiazol-3-ylidene)-2-fluorobenzamide] | –
17 | 110 nM | 170 nM | O=C(NC(=S)N1CCNC1=S)c1ccc(F)cc1F [ARE133, N-(2-thioxo-imidazolidine-1-carbothioyl)-2,4-difluorobenzamide] | –
18 | – | – | O=C(/N=C1\SSC2=NCCN21)c1ccc2ccccc2c1 [ARE136] | Cumulative Food Intake (g) (8 hr post administration) ([1]; 100 μmol/kg PO, second assay, Table D, vehicle 14.0): 9.0 g; Body Weight Gain (g) (6 hr post administration) [1, 2]: 11.0 g; Cumulative Water Intake (g) (6 hr post administration) [1, 2]: 15.25 g; water drunk less than the vehicle animal (FIG. 10B) ([1]; 100 μmol/kg oral): ~4 grams; body weight gain (FIG. 10C) ([1]; 100 μmol/kg oral, vehicle about 19.5 grams): 11 grams
19 | – | 100000 nM | O=C(NC(=S)N1CCNC1=S)c1cccc2ccccc12 [ARE137, N-(2-thioxo-imidazolidine-1-carbothioyl)-naphthyl-1-carboxamide] | –
20 | 190 nM | – | O=C(N=C1SSC2=NCCN21)c1cnn(-c2ccc(Cl)cc2)c1C(F)(F)F [ARE152, N-(5,6dihydro-3H-imidazo[2,1-c]-1,2,4-dithiazol-3-ylidene)-2-(4-chlorophenyl)-3-(trifluoromethyl)pyrazole-4-carboxamide] | –
21 | 2460 nM | – | O=C(NC(=S)N1CCNC1=S)c1cnn(-c2ccc(Cl)cc2)c1C(F)(F)F [ARE153, N-(2-thioxo-imidazolidine-1-carbothioyl)-2-(4-chlorophenyl)-3-(trifluoromethyl)pyrazole-4-carboxamide] | –
22 | – | 80000 nM | CSc1ncccc1C(=O)NC(=S)N1CCNC1=S [ARE154, N-(2-thioxo-imidazolidine-1-carbothioyl)-pyridine-2-methylthio-3-carboxamide] | –
